Experiments:
[1] = S9 degradation test; assay type: in vitro ADME, rats; conditions: rat liver S9 Mix, 5 μg/ml, 37° C., HPLC
Method: Six-week old male SD rats (Charles River Japan) were purchased and acclimatized for 1 week. After the acclimatization for 1 week, the rats were weighed and bled by decapitation. The liver was extracted and washed three times with chilled 0.15 M KCl. After the washing, wet weight of the liver was determined, and the liver was added with the three-times weight of chilled 0.15 M KCl and placed in a homogenizer. The liver was homogenized, and the homogenate was centrifuged with cooling at 9000 g for 10 minutes. The supernatant obtained was designated S9 and stored below −80° C.
The stored S9 was thawed in running water. The thawed S9 (0.1 ml) was added with 0.4 M MgCl2 (0.02 ml), 1.65 M KCl (0.02 ml) and 0.2 M Na phosphate buffer (pH 7.4, 0.5 ml), added with glucose-6-phosphate (Oriental Yeast), NADPH (Oriental Yeast) and NADH (Oriental Yeast) so as to give a concentration of 4 μM, and added with distilled water to give a total volume of 1 ml (this solution is referred to as “S9 Mix”). S9 Mix (0.1 ml) was added with a test substance so as to give a concentration of 5 μg/ml and shaken at 37° C. under reciprocal movement. The weight of the test substance (unchanged substance) with passage of time in the S9 Mix was measured by HPLC. The test substance was dissolved in dimethyl sulfoxide (Wako Pure Chemical Industry) beforehand. The results are shown as percentage values of the amount of the unchanged substance after 30 minutes based on the amount of the unchanged substance immediately after the addition to S9 Mix, which is taken as 100%. […]

[2] = system: ICR male mice; assay: Toxicity test by continuous administration for three days in mice (MTD); assay type: in vivo
Method: Six-week old ICR male mice (Charles River Japan) were purchased, and after quarantine for 1 week, acclimatized in a clean animal cage (air-conditioning: HEPA filter of class 1000, room temperature: 20 to 24° C., humidity: 35 to 60%). Then, in order to obtain an MTD value, a liposome preparation was administered from the caudal vein. The liposome preparation was administered by using physiological saline (Hikari Pharmaceutical) or a glucose solution (Otsuka Pharmaceutical) as a solvent. On the basis of the MTD value obtained, the liposome preparation was administered from the caudal vein every three consecutive days in an amount corresponding to ½ of the MTD value (n=3). The symptoms were observed up to 6 hours after each administration, and autopsy was performed after completion of the administration to examine major organs. As a result, no abnormality was recognized. […]

[3] = system: Wistar rats; assay: Neurotoxicity test in Wistar rats; assay type: in vivo; parameters: key to Neurotoxicity (+: present, −: absent): +: present; −: absent
Method: Six-week old male Wistar rats (Charles River Japan) were purchased, and after quarantine for 1 week, acclimatized in a clean animal cage (air-conditioning: HEPA filter of class 1000, room temperature: 20 to 24° C., humidity: 35 to 60%). […]. The liposome preparation was administered by using physiological saline (Hikari Pharmaceutical) or a glucose solution (Otsuka Pharmaceutical) as a solvent.
In the same manner as in Test Example 4, the neurotoxicity test using a Wistar rat was performed.

[4] = system: vascular smooth muscle cells; assay: Uptake amount of iodine atoms by vascular smooth muscle cells (mixed culture with macrophage); assay type: cell-based; conditions: liposome PC 50 nmol + PS 50 nmol + compound 75 nmol; cultured at 37° C. under 5% CO2 for 24 hours
Method: Dipalmitoyl-PC (Funakoshi, No. 1201-41-0225) and dipalmitoyl-PS (Funakoshi, No. 1201-42-0237) at the ratio shown below were dissolved in chloroform together with each of the iodine compounds of the present invention in an eggplant-shaped flask according to the method described in J. Med. Chem., 25 (12), 1500 (1982) to form a uniform solution. Then, the solvent was evaporated under reduced pressure to form a thin membrane on the bottom of the flask bottom. This thin membrane was dried in vacuum, then added with an appropriate amount of 0.9% physiological saline (Hikari Pharmaceutical, No. 512) and subjected to ultrasonication (No. 3542 probe type oscillator, Branson, 0.1 mW) for 5 minutes to obtain a uniform liposome dispersion. The diameters of the liposomes in the resulting dispersion were measured by using WBC analyzer (A-1042, Nihon Kohden). […] The liposome preparations mentioned below, which were produced by the above method, were each added to a mixed culture system of vascular smooth muscle cells and macrophage described in International Publication WO 01/82977. The cells were cultured at 37° C. under 5% CO2 for 24 hours, and the amounts of the iodine compounds taken up into the vascular smooth muscle cells were each quantified.
In the same manner as in Test Example 1, liposome preparations containing dipalmitoyl-PC (Funakoshi, No. 1201-41-0225) and dipalmitoyl-PS (Funakoshi, No. 1201-42-0237) at the ratio shown below were prepared. […] The liposome preparations produced by the above method were each added to a mixed culture system of vascular smooth muscle cells and macrophage described in International Publication WO 01/82977. The cells were cultured at 37° C. under 5% CO2 for 24 hours, and the amounts of the iodine compounds taken up into the vascular smooth muscle cells were each quantified.

[5] = system: arteriosclerotic lesions in rat aortas; assay: X-ray radiography of rat arteriosclerotic lesion; assay type: in vivo; conditions: liposome preparation, 200 mg/kg from the cervical vein
Method: According to the method described in Invest. Radiol., 18, 275 (1985), arteriosclerotic lesions were formed in rat aortas. The liposome preparation of 1A-4-1 prepared above was carefully administered to the rats with the formed arteriosclerotic lesions were formed from the cervical vein in an amount of 200 mg/kg.
In the same manner as in Test Example 2, the liposome preparation of 1B-1-3 prepared above was carefully administered from the cervical vein to the rats with the formed arteriosclerotic lesions in an amount of 200 mg/kg.

[6] = liposome preparation from the caudal vein, 1/2 of the MTD value, after pentobarbital, observed up to 4 hours
[7] = liposome preparation administered from the caudal vein, ICR male mice

| Compound | amount of the unchanged substance after 30 minutes based on the amount immediately after the addition to S9 Mix (100%) [1] | MTD [2, 7] [mg/kg] | further results |
| --- | --- | --- | --- |
| CN(C)C(=O)CCC(=O)OC(COC(=O)CCCCCCCCCCOc1c(I)cc(I)cc1I)COC(=O)CCCCCCCCCCOc1c(I)cc(I)cc1I [Compound 1A-4-3] | 1A-4-3: 5% | – | – |
| O=C(O)CCC(=O)OC(COC(=O)CCCCCCCCCCOc1c(I)cc(I)cc1I)COC(=O)CCCCCCCCCCOc1c(I)cc(I)cc1I [Compound 1A-4-4] | 1A-4-4: 24% | – | MTD ([2]; mouse, in vivo): 800 mg/kg; Neurotoxicity (+: present, −: absent) [3, 6]: (−) |
| O=C(CCCCCCCCCCOc1c(I)cc(I)cc1I)OCC(COC(=O)CCCCCCCCCCOc1c(I)cc(I)cc1I)OCC(=O)N1CCOCC1 [Compound 1A-5-1] | 1A-5-1: 9% | 800 | Neurotoxicity (+: present, −: absent) ([3]; rat, in vivo): (−) |
| NC(=O)COC(COC(=O)CCCCCCCCCCOc1c(I)cc(I)cc1I)COC(=O)CCCCCCCCCCOc1c(I)cc(I)cc1I [Compound 1A-5-2] | 1A-5-2: 60% | – | – |
| C[N+](C)(C)CCOP(=O)([O-])OC(COC(=O)CCCCCCCCCCOc1c(I)cc(I)cc1I)COC(=O)CCCCCCCCCCOc1c(I)cc(I)cc1I [Compound 1B-1-3] | 1B-1-3: 4% | 2000 | Uptake amount [4]: 59.8 × 10^−3 nmol/μg protein; X-ray radiography images of arteriosclerotic lesions ([5]; one minute after the administration): clearly contrasted images of arteriosclerotic lesions were obtained; Neurotoxicity ([3]; rat, in vivo): no neurotoxicity was observed |
| NC(=O)CCC(=O)OC(COC(=O)CCCCCCCCCCOc1c(I)cc(I)cc1I)COC(=O)CCCCCCCCCCOc1c(I)cc(I)cc1I [Compound 1A-4-2] | 1A-4-2: 10% | – | – |
| O=C(CCCCCCCCCCOc1c(I)cc(I)cc1I)OCC(COC(=O)CCCCCCCCCCOc1c(I)cc(I)cc1I)OC(=O)COC(CO)CO [Compound 1A-6-9] | 1A-6-9: 13% | 800 | – |
| O=C(O)COC(COC(=O)CCCCCCCCCCOc1c(I)cc(I)cc1I)COC(=O)CCCCCCCCCCOc1c(I)cc(I)cc1I [Compound 1A-5-4] | 1A-5-4: 20% | – | MTD ([2]; mouse, in vivo): 800 mg/kg; Neurotoxicity (+: present, −: absent) [3, 6]: (−) |
| CN(C)C(=O)COC(COC(=O)CCCCCCCCCCOc1c(I)cc(I)cc1I)COC(=O)CCCCCCCCCCOc1c(I)cc(I)cc1I [Compound 1A-5-3] | 1A-5-3: 52% | – | – |
| O=C(CCCCCCCCCCOc1c(I)cc(I)cc1I)OCC(COC(=O)CCCCCCCCCCOc1c(I)cc(I)cc1I)OC(=O)CCCN1CCOCC1 [Compound 1A-3-2] | 1A-3-2: 60% | 800 | – |
| O=C(CCCCCCCCCCOc1c(I)cc(I)cc1I)OCC(COC(=O)CCCCCCCCCCOc1c(I)cc(I)cc1I)OC(=O)CCCCN1CCOCC1 [Compound 1A-3-3] | 1A-3-3: 64% | 1000 | Neurotoxicity (+: present, −: absent) ([3]; rat, in vivo): (−) |
| CCOCCOCCOCCOC(COC(=O)CCCCCCCCCCOc1c(I)cc(I)cc1I)COC(=O)CCCCCCCCCCOc1c(I)cc(I)cc1I [Compound 1A-7-3] | 1A-7-3: 5% | – | Uptake amount [4]: 41.8 × 10^−3 nmol/μg protein |
| CCOCCOCCOCCOC(=O)CCC(=O)OC(COC(=O)CCCCCCCCCCOc1c(I)cc(I)cc1I)COC(=O)CCCCCCCCCCOc1c(I)cc(I)cc1I [Compound 1A-4-5] | 1A-4-5: 38% | – | MTD ([2]; mouse, in vivo): 800 mg/kg; Neurotoxicity (+: present, −: absent) [3, 6]: (−) |
| O=C(CCCCCCCCCCOc1c(I)cc(I)cc1I)OCC(COC(=O)CCCCCCCCCCOc1c(I)cc(I)cc1I)OC(=O)CCN1CCOCC1 [Compound 1A-3-1] | 1A-3-1: 58% | – | – |
| CN(C)CC(=O)OC(COC(=O)CCCCCCCCCCOc1c(I)cc(I)cc1I)COC(=O)CCCCCCCCCCOc1c(I)cc(I)cc1I [Compound 1A-6-3] | 1A-6-3: 60% | – | – |
| O=C(CCCCCCCCCCOc1c(I)cc(I)cc1I)OCC(COC(=O)CCCCCCCCCCOc1c(I)cc(I)cc1I)OCCO [Compound 1A-7-5] | 1A-7-5: 11% | – | Uptake amount [4]: 36.1 × 10^−3 nmol/μg protein |
| O=C(CCCCCCCCCCOc1c(I)cc(I)cc1I)OCC(COC(=O)CCCCCCCCCCOc1c(I)cc(I)cc1I)OC(=O)CCC(=O)N1CCOCC1 [Compound 1A-4-1] | 1A-4-1: 59% | 1000 | Uptake amount [4]: 31.4 × 10^−3 nmol/μg protein; X-ray radiography images of arteriosclerotic lesions ([5]; ten minutes after the administration): clearly contrasted images of the arteriosclerotic lesions were obtained; Neurotoxicity (+: present, −: absent) ([3]; rat, in vivo): (−) |
| O=C(CCCCCCCCCCOc1c(I)cc(I)cc1I)OCC(COC(=O)CCCCCCCCCCOc1c(I)cc(I)cc1I)OC(=O)CCCCCN1CCOCC1 [Compound 1A-3-4] | 1A-3-4: 63% | 1000 | – |
| O=C(CCCCCCCCCCOc1c(I)cc(I)cc1I)OCC(COC(=O)CCCCCCCCCCOc1c(I)cc(I)cc1I)OC(=O)CN1CCOCC1 [Compound 1A-1-3] | 1A-1-3: 63% | 800 | Uptake amount [4]: 49.8 × 10^−3 nmol/μg protein; Neurotoxicity (+: present, −: absent) ([3]; rat, in vivo): (−) |
